This is an account of results in patent publication US8471005B2 (Cephalon, Inc., priority 2008, dated 2013).

One assay deals with T1, JAK2 (Homo sapiens, UniProt O60674).
T1 construct: host or cells: baculovirus expression system
Description: Recombinant Human JAK2 Kinase Assay (TRF). The following applies: JAK2 kinase inhibition, 0.2 μM ATP; read-out: JAK2 Potency. Format: biochemical. The procedure, abridged:
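Baculovirus-expressed JAK2 (15 ng/ml) phosphorylated a biotinylated 15-mer peptide captured on Neutravidin, in 20 mM HEPES pH 7.2, 0.2 μM ATP, 1 mM MnCl2, 0.1% BSA, 2.5% DMSO final, 20 min at room temperature. Phosphoproduct detected by time-resolved fluorescence with Eu-N1-labelled PY100 antibody.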

In a further assay the target is T2, ALK (Homo sapiens, UniProt Q9UM73).
T2 construct: host or cells: baculovirus expression system
T2 sequence (Q9UM73 19-1620): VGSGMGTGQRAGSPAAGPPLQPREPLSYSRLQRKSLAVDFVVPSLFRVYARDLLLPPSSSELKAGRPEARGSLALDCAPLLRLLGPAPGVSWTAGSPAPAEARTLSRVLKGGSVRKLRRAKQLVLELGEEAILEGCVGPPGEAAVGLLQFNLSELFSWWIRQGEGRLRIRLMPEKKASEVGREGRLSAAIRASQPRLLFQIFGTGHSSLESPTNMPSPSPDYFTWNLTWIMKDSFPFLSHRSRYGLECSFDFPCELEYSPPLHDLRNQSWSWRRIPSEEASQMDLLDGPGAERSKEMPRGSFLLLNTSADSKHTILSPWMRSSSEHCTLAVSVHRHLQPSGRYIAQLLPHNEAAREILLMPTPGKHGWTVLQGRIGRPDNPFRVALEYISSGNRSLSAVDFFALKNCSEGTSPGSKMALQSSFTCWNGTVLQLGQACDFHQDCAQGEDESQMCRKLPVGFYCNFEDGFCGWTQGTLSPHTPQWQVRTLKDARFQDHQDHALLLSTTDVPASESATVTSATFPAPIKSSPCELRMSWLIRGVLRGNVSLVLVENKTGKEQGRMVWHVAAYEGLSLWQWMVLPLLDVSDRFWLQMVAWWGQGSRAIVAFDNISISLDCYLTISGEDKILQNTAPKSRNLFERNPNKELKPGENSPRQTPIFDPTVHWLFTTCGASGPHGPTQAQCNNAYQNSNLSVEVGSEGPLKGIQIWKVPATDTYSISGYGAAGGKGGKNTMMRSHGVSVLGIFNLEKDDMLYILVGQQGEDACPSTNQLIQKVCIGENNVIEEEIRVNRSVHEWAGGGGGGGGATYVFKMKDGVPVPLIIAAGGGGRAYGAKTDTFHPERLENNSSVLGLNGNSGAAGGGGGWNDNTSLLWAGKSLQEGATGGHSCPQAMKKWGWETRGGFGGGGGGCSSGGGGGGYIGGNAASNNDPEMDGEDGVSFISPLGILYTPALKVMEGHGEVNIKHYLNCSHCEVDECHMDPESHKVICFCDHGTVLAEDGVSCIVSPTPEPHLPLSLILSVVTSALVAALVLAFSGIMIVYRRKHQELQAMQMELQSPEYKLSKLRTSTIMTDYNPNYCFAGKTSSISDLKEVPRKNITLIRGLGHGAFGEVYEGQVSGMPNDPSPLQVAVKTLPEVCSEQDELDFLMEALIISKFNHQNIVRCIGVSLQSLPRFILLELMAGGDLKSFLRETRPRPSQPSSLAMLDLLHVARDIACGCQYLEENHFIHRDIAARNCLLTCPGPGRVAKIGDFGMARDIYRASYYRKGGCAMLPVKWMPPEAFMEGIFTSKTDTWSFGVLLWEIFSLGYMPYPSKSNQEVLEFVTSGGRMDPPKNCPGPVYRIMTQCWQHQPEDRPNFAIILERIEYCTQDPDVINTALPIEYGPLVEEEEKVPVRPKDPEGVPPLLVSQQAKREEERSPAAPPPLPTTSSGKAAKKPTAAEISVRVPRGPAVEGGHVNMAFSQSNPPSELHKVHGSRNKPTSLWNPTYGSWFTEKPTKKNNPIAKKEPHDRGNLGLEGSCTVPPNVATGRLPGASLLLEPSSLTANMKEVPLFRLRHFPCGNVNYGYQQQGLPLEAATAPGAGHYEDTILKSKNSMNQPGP
Nature of the assay: ALK Kinase Assay (ELISA/TRF, PLC-γ substrate). Format: biochemical. The conditions noted are these: ALK kinase inhibition, 1 μM ATP; read-out: ALK Potency. The gist of the method:
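PLC-γ substrate coated at 10 μg/mL in TBS; reaction started with 30 ng/ml ALK, run 15 min at 37° C. Phosphoproduct detected by TRF with Eu-N1-labeled PT66 anti-phosphotyrosine antibody. IC50 from sigmoidal variable-slope fit of percent inhibition versus log concentration.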
(In an ELISA, binding on a coated surface is turned into a signal by an enzyme label.)

T1 sequence (O60674 whole entry): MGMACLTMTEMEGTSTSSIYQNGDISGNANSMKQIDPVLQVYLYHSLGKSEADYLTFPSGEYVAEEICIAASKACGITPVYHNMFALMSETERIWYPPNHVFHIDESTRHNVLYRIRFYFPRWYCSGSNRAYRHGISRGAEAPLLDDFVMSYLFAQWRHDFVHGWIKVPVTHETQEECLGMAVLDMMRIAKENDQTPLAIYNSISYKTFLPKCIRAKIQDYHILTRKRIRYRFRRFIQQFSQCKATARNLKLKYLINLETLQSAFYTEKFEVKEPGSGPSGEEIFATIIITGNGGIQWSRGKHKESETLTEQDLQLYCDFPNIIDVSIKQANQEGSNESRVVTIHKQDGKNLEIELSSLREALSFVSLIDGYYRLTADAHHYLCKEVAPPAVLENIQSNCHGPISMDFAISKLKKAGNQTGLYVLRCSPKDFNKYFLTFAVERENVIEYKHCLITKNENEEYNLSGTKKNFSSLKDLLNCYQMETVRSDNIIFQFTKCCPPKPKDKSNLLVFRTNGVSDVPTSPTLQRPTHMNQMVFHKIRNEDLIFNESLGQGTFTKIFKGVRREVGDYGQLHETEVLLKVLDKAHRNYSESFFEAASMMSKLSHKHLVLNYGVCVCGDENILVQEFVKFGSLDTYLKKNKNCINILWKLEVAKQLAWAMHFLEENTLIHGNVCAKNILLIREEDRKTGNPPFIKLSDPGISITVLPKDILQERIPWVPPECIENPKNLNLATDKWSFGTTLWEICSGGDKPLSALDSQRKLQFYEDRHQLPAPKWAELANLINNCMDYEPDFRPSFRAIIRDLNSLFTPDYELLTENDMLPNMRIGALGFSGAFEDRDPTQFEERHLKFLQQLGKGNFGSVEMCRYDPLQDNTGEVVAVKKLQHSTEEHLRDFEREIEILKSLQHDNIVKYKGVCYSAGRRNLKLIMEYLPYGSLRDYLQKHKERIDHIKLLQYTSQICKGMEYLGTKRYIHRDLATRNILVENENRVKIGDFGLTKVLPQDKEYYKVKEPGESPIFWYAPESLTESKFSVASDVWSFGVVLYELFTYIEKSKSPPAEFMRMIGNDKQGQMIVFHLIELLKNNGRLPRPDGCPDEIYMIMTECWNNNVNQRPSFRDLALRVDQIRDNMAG

As for `COC[C@H](O)CN1CCN(Cc2ccc(Nc3ncc4ccc(-c5ccccc5OC)n4n3)c(OC)c2)CC1` [Example 1227, (R)-1-Methoxy-3-(4-{3-methoxy-4-[7-(2-methoxy-phenyl)-pyrrolo[2,1-f][1,2,4]triazin-2-ylamino]-benzyl}-piperazin-1-yl)-propan-2-ol], the IC50 at JAK2 is 100 to 1000 nM; on ALK it was < 100 nM.
Take `COc1cc(CN2CCN(C[C@@H](O)CO)CC2)ccc1Nc1ncc2ccc(-c3ccccc3N(C)S(C)(=O)=O)n2n1` [Example 1228, N-[2-(2-{4-[4-((R)-2,3-Dihydroxy-propyl)-piperazin-1-ylmethyl]-2-methoxy-phenylamino}-pyrrolo[2,1-f][1,2,4]triazin-7-yl)-phenyl]-N-methyl-methanesulfonamide]: the IC50 at JAK2 is 100 to 1000 nM; on ALK, < 100 nM.
On to `Cc1nn(C)cc1-c1ccc2cnc(Nc3ccc(N4CCN(C)CC4)cc3)nn12` [Example 1229, [7-(1,3-Dimethyl-1H-pyrazol-4-yl)-pyrrolo[2,1-f][1,2,4]triazin-2-yl]-[4-(4-methyl-piperazin-1-yl)-phenyl]-amine], for which the values for the IC50 on JAK2 and on ALK were < 100 nM and 100 to 1000 nM, respectively.
As to `COc1c(Nc2ncc3ccc(-c4ccccc4N(C)S(C)(=O)=O)n3n2)cccc1C(=O)N1CCN(C)CC1` [Example 1230, N-(2-{2-[2-Methoxy-3-(4-methyl-piperazine-1-carbonyl)-phenylamino]-pyrrolo[2,1-f][1,2,4]triazin-7-yl}-phenyl)-N-methyl-methanesulfonamide], the IC50 was > 10000 nM at JAK2 and 100 to 1000 nM at ALK.
With `COc1ccccc1-c1ccc2cnc(Nc3cccc(C(=O)N4CCN(C)CC4)c3OC)nn12` [Example 1231, {2-Methoxy-3-[7-(2-methoxy-phenyl)-pyrrolo[2,1-f][1,2,4]triazin-2-ylamino]-phenyl}-(4-methyl-piperazin-1-yl)-methanone], the IC50 at JAK2 is 1000 to 10000 nM; on ALK, 100 to 1000 nM.
In the case of `COc1c(Nc2ncc3ccc(-c4ccccc4N(C)S(C)(=O)=O)n3n2)cccc1C(=O)N1CCN(CCO)CC1` [Example 1232, N-[2-(2-{3-[4-(2-Hydroxy-ethyl)-piperazine-1-carbonyl]-2-methoxy-phenylamino}-pyrrolo[2,1-f][1,2,4]triazin-7-yl)-phenyl]-N-methyl-methanesulfonamide], the IC50 is > 10000 nM at JAK2 and 100 to 1000 nM on ALK.
For the molecule `COc1ccccc1-c1ccc2cnc(Nc3cccc(C(=O)N4CCN(CCO)CC4)c3OC)nn12` [Example 1233, [4-(2-Hydroxy-ethyl)-piperazin-1-yl]-{2-methoxy-3-[7-(2-methoxy-phenyl)-pyrrolo[2,1-f][1,2,4]triazin-2-ylamino]-phenyl}-methanone], the IC50 fell in the range of 1000 to 10000 nM on JAK2 and 100 to 1000 nM at ALK.
For `COc1cc(CN2CCC(O)CC2)ccc1Nc1ncc2ccc(-c3ccccc3N(C)S(C)(=O)=O)n2n1` [Example 1234, N-(2-{2-[4-(4-Hydroxy-piperidin-1-ylmethyl)-2-methoxy-phenylamino]-pyrrolo[2,1-f][1,2,4]triazin-7-yl}-phenyl)-N-methyl-methanesulfonamide], the IC50 is 1000 to 10000 nM at JAK2 and < 100 nM at ALK.
For `COc1cc(CN2CCC(O)CC2)ccc1Nc1ncc2ccc(-c3ccccc3OC)n2n1` [Example 1235, 1-{3-Methoxy-4-[7-(2-methoxy-phenyl)-pyrrolo[2,1-f][1,2,4]triazin-2-ylamino]-benzyl}-piperidin-4-ol], the figures for the IC50 at JAK2 and on ALK were 100 to 1000 nM and < 100 nM, respectively.
With `COc1cc(CN2C[C@@H](O)[C@H](O)C2)ccc1Nc1ncc2ccc(-c3ccccc3N(C)S(C)(=O)=O)n2n1` [Example 1236, N-(2-{2-[4-((3R,4R)-3,4-Dihydroxy-pyrrolidin-1-ylmethyl)-2-methoxy-phenylamino]-pyrrolo[2,1-f][1,2,4]triazin-7-yl}-phenyl)-N-methyl-methanesulfonamide], the IC50 on JAK2 was 1000 to 10000 nM; on ALK, < 100 nM.
Consider `COc1cc(CN2C[C@@H](O)[C@H](O)C2)ccc1Nc1ncc2ccc(-c3ccccc3OC)n2n1` [Example 1237, (3R,4R)-1-{3-Methoxy-4-[7-(2-methoxy-phenyl)-pyrrolo[2,1-f][1,2,4]triazin-2-ylamino]-benzyl}-pyrrolidine-3,4-diol], for which the IC50 was 100 to 1000 nM at JAK2 and < 100 nM on ALK.
For `COc1cc(CN2CCN(C(=O)CNC(=O)OC(C)(C)C)CC2)ccc1Nc1ncc2ccc(-c3ccccc3N(C)S(C)(=O)=O)n2n1` [Example 1239, {2-[4-(4-{7-[2-(Methanesulfonyl-methyl-amino)-phenyl]-pyrrolo[2,1-f][1,2,4]triazin-2-ylamino}-3-methoxy-benzyl)-piperazin-1-yl]-2-oxo-ethyl}-carbamic acid tert-butyl ester], the results for the IC50 on JAK2 and at ALK were 100 to 1000 nM and < 100 nM, respectively.
Regarding `COc1cc(CN2CCN(C(C)=O)CC2)ccc1Nc1ncc2ccc(-c3ccccc3N(C)S(C)(=O)=O)n2n1` [Example 1240, N-(2-{2-[4-(4-Acetyl-piperazin-1-ylmethyl)-2-methoxy-phenylamino]-pyrrolo[2,1-f][1,2,4]triazin-7-yl}-phenyl)-N-methyl-methanesulfonamide], the results for the IC50 on JAK2 and at ALK were 100 to 1000 nM and < 100 nM, respectively.
As to `COc1cc(CN2CCN(C(=O)CN)CC2)ccc1Nc1ncc2ccc(-c3ccccc3N(C)S(C)(=O)=O)n2n1` [Example 1241, N-[2-(2-{4-[4-(2-Amino-acetyl)-piperazin-1-ylmethyl]-2-methoxy-phenylamino}-pyrrolo[2,1-f][1,2,4]triazin-7-yl)-phenyl]-N-methyl-methanesulfonamide], the IC50 on JAK2 is 1000 to 10000 nM; at ALK, < 100 nM.
Consider `COc1cc(CN2CCN(C(=O)CNC(=O)OC(C)(C)C)CC2)ccc1Nc1ncc2ccc(-c3ccccc3OC)n2n1` [Example 1242, [2-(4-{3-Methoxy-4-[7-(2-methoxy-phenyl)-pyrrolo[2,1-f][1,2,4]triazin-2-ylamino]-benzyl}-piperazin-1-yl)-2-oxo-ethyl]-carbamic acid tert-butyl ester], for which the IC50 at JAK2 and on ALK was 100 to 1000 nM each time.
For `COc1cc(CN2CCN(CC(O)CF)CC2)ccc1Nc1ncc2ccc(-c3ccccc3OC)n2n1` (stereo not drawn) [Example 1243, 1-Fluoro-3-(4-{3-methoxy-4-[7-(2-methoxy-phenyl)-pyrrolo[2,1-f][1,2,4]triazin-2-ylamino]-benzyl}-piperazin-1-yl)-propan-2-ol], the IC50 at JAK2 was 100 to 1000 nM; at ALK, < 100 nM.
On the same counts, the results for `COc1cc(CN2CCN(C(=O)CN)CC2)ccc1Nc1ncc2ccc(-c3ccccc3OC)n2n1` [Example 1244, 2-Amino-1-(4-{3-methoxy-4-[7-(2-methoxy-phenyl)-pyrrolo[2,1-f][1,2,4]triazin-2-ylamino]-benzyl}-piperazin-1-yl)-ethanone] are 100 to 1000 nM and < 100 nM.
For the molecule `COc1cc([C@]2(C#N)CC[C@H](N3CCOCC3)CC2)ccc1Nc1ncc2ccc(-c3ccccc3N(C)S(C)(=O)=O)n2n1` [Example 1245, N-{2-[2-({4-[trans-1-cyano-4-(morpholin-4-yl)cyclohexyl]-2-methoxyphenyl}amino)pyrrolo[2,1-f][1,2,4]triazin-7-yl]phenyl}-N-methylmethanesulfonamide], the IC50 on JAK2 is 100 to 1000 nM; on ALK, < 100 nM.
With `COc1cc(C2(C#N)CCC(N3CCOCC3)CC2)ccc1Nc1ncc2ccc(-c3ccccc3OC)n2n1` (stereo not drawn) [Example 1246, trans-1-[3-methoxy-4-[[7-(2-methoxyphenyl)pyrrolo[2,1-f][1,2,4]triazin-2-yl]amino]phenyl]-4-morpholino-cyclohexanecarbonitrile], the IC50 on JAK2 is 100 to 1000 nM; at ALK, < 100 nM.
`COc1cc([C@H]2CC[C@H](N3CCOCC3)CC2)ccc1Nc1ncc2ccc(-c3ccccc3OC)n2n1` [Example 1247, N-{2-methoxy-4-[trans-4-(morpholin-4-yl)cyclohexyl]phenyl}-7-(2-methoxyphenyl)pyrrolo[2,1-f][1,2,4]triazin-2-amine]: the IC50 on JAK2 is 100 to 1000 nM; at ALK, < 100 nM.
With `COc1cc([C@H]2CC[C@H](N3CCOCC3)CC2)ccc1Nc1ncc2ccc(-c3ccccc3N(C)S(C)(=O)=O)n2n1` [Example 1248, N-{2-[2-({2-methoxy-4-[trans-4-(morpholin-4-yl)cyclohexyl]phenyl}amino)pyrrolo[2,1-f][1,2,4]triazin-7-yl]phenyl}-N-methylmethanesulfonamide], the IC50 is 100 to 1000 nM at JAK2 and < 100 nM on ALK.
With `COc1cc([C@H]2CC[C@@H](N3CCOCC3)CC2)ccc1Nc1ncc2ccc(-c3ccccc3N(C)S(C)(=O)=O)n2n1` [Example 1249, N-{2-[2-({2-methoxy-4-[cis-4-(morpholin-4-yl)cyclohexyl]phenyl}amino)pyrrolo[2,1-f][1,2,4]triazin-7-yl]phenyl}-N-methylmethanesulfonamide], the IC50 was 1000 to 10000 nM on JAK2 and < 100 nM at ALK.
In the case of `CN1CCN(c2ncc3ccc(-c4ccccc4N(C)S(C)(=O)=O)n3n2)CC1` [Example 1250, N-Methyl-N-{2-[2-(4-methyl-piperazin-1-yl)-pyrrolo[2,1-f][1,2,4]triazin-7-yl]-phenyl}-methanesulfonamide], the IC50 on JAK2 lay within 100 to 1000 nM; at ALK it was 1000 to 10000 nM.
The matching figures for `COc1cc(CN2CCN(C)CC2)ccc1Nc1ncc2ccc(-c3ccccc3N(C)S(C)(=O)=O)n2n1` [Example 1251, N-(2-{2-[2-Methoxy-4-(4-methyl-piperazin-1-ylmethyl)-phenylamino]-pyrrolo[2,1-f][1,2,4]triazin-7-yl}-phenyl)-N-methyl-methanesulfonamide]: 1000 to 10000 nM and < 100 nM.
